Data taken from PubChem BioAssay (NCI).
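Where inhibition never reached the appropriate level, the endpoint shown equals the highest concentration tested. Otherwise, values were interpolated linearly from a five-concentration, 48-hour dose response in 96-well plates. The concentration for full growth arrest is given as TGI.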

How the values were obtained:
Assay in all cases: growth of human tumour cells (NCI), 48 h
A498 renal = test system: A498 renal
A549 NSCLC = test system: A549 NSCLC
ACHN renal = test system: ACHN renal
BT-549 breast = test system: BT-549 breast
CAKI-1 renal = test system: CAKI-1 renal
CCRF-CEM leukemia = test system: CCRF-CEM leukemia
COLO 205 colon = test system: COLO 205 colon
DU-145 prostate = test system: DU-145 prostate
EKVX NSCLC = test system: EKVX NSCLC
HCC-2998 colon = test system: HCC-2998 colon
HCT-116 colon = test system: HCT-116 colon
HCT-15 colon = test system: HCT-15 colon
HL-60(TB) leukemia = test system: HL-60(TB) leukemia
HOP-62 NSCLC = test system: HOP-62 NSCLC
HOP-92 NSCLC = test system: HOP-92 NSCLC
HS 578T breast = test system: HS 578T breast
HT29 colon = test system: HT29 colon
IGROV1 ovarian = test system: IGROV1 ovarian
K-562 leukemia = test system: K-562 leukemia
KM12 colon = test system: KM12 colon
LOX IMVI melanoma = test system: LOX IMVI melanoma
M14 melanoma = test system: M14 melanoma
MALME-3M melanoma = test system: MALME-3M melanoma
MCF7 breast = test system: MCF7 breast
MDA-MB-231 breast = test system: MDA-MB-231 breast
MDA-MB-435 = test system: MDA-MB-435
MDA-N = test system: MDA-N
MOLT-4 leukemia = test system: MOLT-4 leukemia
NCI-H226 lung = test system: NCI-H226 lung
NCI-H23 lung = test system: NCI-H23 lung
NCI-H460 lung = test system: NCI-H460 lung
NCI-H522 lung = test system: NCI-H522 lung
NCI/ADR-RES ovarian = test system: NCI/ADR-RES ovarian
OVCAR-3 ovarian = test system: OVCAR-3 ovarian
OVCAR-4 ovarian = test system: OVCAR-4 ovarian
OVCAR-5 ovarian = test system: OVCAR-5 ovarian
OVCAR-8 ovarian = test system: OVCAR-8 ovarian
PC-3 prostate = test system: PC-3 prostate
RPMI-8226 leukemia = test system: RPMI-8226 leukemia
RXF 393 renal = test system: RXF 393 renal
SF-268 CNS = test system: SF-268 CNS
SF-295 CNS = test system: SF-295 CNS
SF-539 CNS = test system: SF-539 CNS
SK-MEL-2 melanoma = test system: SK-MEL-2 melanoma
SK-MEL-28 melanoma = test system: SK-MEL-28 melanoma
SK-MEL-5 melanoma = test system: SK-MEL-5 melanoma
SK-OV-3 ovarian = test system: SK-OV-3 ovarian
SN12C renal = test system: SN12C renal
SNB-19 CNS = test system: SNB-19 CNS
SNB-75 CNS = test system: SNB-75 CNS
SR leukemia = test system: SR leukemia
SW-620 colon = test system: SW-620 colon
T-47D breast = test system: T-47D breast
TK-10 renal = test system: TK-10 renal
U251 CNS = test system: U251 CNS
UACC-257 melanoma = test system: UACC-257 melanoma
UACC-62 melanoma = test system: UACC-62 melanoma
UO-31 renal = test system: UO-31 renal
786-0 renal = test system: 786-0 renal

## CC(=O)OCC1OC(n2c(-c3ccc(C)cc3)cc(-c3ccco3)c(C#N)c2=S)C(OC(C)=O)C(OC(C)=O)C1OC(C)=O (centres undefined)
A498 renal
  TGI: > 100 µM
A549 NSCLC
  TGI: > 100 µM
ACHN renal
  TGI: > 100 µM
BT-549 breast
  TGI: > 100 µM
CAKI-1 renal
  TGI: > 100 µM
CCRF-CEM leukemia
  TGI: > 100 µM
COLO 205 colon
  TGI: > 100 µM
DU-145 prostate
  TGI: > 100 µM
EKVX NSCLC
  TGI: > 100 µM
HCC-2998 colon
  TGI: > 100 µM
HCT-116 colon
  TGI: > 100 µM
HCT-15 colon
  TGI: > 100 µM
HL-60(TB) leukemia
  TGI: > 100 µM
HOP-62 NSCLC
  TGI: > 100 µM
HOP-92 NSCLC
  TGI: 81.1 µM
HS 578T breast
  TGI: > 100 µM
HT29 colon
  TGI: > 100 µM
IGROV1 ovarian
  TGI: > 100 µM
K-562 leukemia
  TGI: > 100 µM
KM12 colon
  TGI: > 100 µM
LOX IMVI melanoma
  TGI: > 100 µM
M14 melanoma
  TGI: > 100 µM
MALME-3M melanoma
  TGI: > 100 µM
MCF7 breast
  TGI: > 100 µM
MDA-MB-231 breast
  TGI: 78.4 µM
MDA-MB-435
  TGI: > 100 µM
MDA-N
  TGI: > 100 µM
MOLT-4 leukemia
  TGI: > 100 µM
NCI-H226 lung
  TGI: > 100 µM
NCI-H23 lung
  TGI: > 100 µM
NCI-H460 lung
  TGI: > 100 µM
NCI-H522 lung
  TGI: > 100 µM
NCI/ADR-RES ovarian
  TGI: > 100 µM
OVCAR-3 ovarian
  TGI: > 100 µM
OVCAR-4 ovarian
  TGI: > 100 µM
OVCAR-5 ovarian
  TGI: > 100 µM
OVCAR-8 ovarian
  TGI: > 100 µM
PC-3 prostate
  TGI: > 100 µM
RPMI-8226 leukemia
  TGI: > 100 µM
RXF 393 renal
  TGI: > 100 µM
SF-268 CNS
  TGI: > 100 µM
SF-295 CNS
  TGI: > 100 µM
SF-539 CNS
  TGI: 36.1 µM
SK-MEL-2 melanoma
  TGI: > 100 µM
SK-MEL-28 melanoma
  TGI: > 100 µM
SK-MEL-5 melanoma
  TGI: > 100 µM
SK-OV-3 ovarian
  TGI: > 100 µM
SN12C renal
  TGI: > 100 µM
SNB-19 CNS
  TGI: > 100 µM
SNB-75 CNS
  TGI: > 100 µM
SR leukemia
  TGI: > 100 µM
SW-620 colon
  TGI: > 100 µM
T-47D breast
  TGI: > 100 µM
TK-10 renal
  TGI: > 100 µM
U251 CNS
  TGI: > 100 µM
UACC-257 melanoma
  TGI: > 100 µM
UACC-62 melanoma
  TGI: 45.2 µM
UO-31 renal
  TGI: > 100 µM

## CCC/C=C/C=C/C(=O)OC1C(C)C2(O)C3C=C(C)C(=O)C3CC(COC(C)=O)=CC2C2C(C)(C)C12OC(=O)C(C)C (centres undefined)
786-0 renal
  TGI: 23.1 µM
A498 renal
  TGI: 44.9 µM
A549 NSCLC
  TGI: > 100 µM
ACHN renal
  TGI: 39.3 µM
BT-549 breast
  TGI: 35.1 µM
CAKI-1 renal
  TGI: 33.9 µM
CCRF-CEM leukemia
  TGI: 19.1 µM
COLO 205 colon
  TGI: 9.18 µM
DU-145 prostate
  TGI: > 100 µM
EKVX NSCLC
  TGI: 42.5 µM
HCC-2998 colon
  TGI: 14.7 µM
HCT-116 colon
  TGI: 26.8 µM
HL-60(TB) leukemia
  TGI: > 48.3 µM
HOP-62 NSCLC
  TGI: 0.0586 µM
HOP-92 NSCLC
  TGI: 27.2 µM
HS 578T breast
  TGI: 55.4 µM
HT29 colon
  TGI: 25 µM
IGROV1 ovarian
  TGI: 33.1 µM
K-562 leukemia
  TGI: > 68.6 µM
KM12 colon
  TGI: 32 µM
LOX IMVI melanoma
  TGI: 34.8 µM
M14 melanoma
  TGI: 27.7 µM
MALME-3M melanoma
  TGI: 26.5 µM
MCF7 breast
  TGI: 32 µM
MDA-MB-231 breast
  TGI: 20.2 µM
MDA-MB-435
  TGI: 18.3 µM
MDA-N
  TGI: 20.1 µM
MOLT-4 leukemia
  TGI: 16.2 µM
NCI-H226 lung
  TGI: 42.1 µM
NCI-H23 lung
  TGI: 26.9 µM
NCI-H460 lung
  TGI: > 83.7 µM
NCI-H522 lung
  TGI: 26.8 µM
NCI/ADR-RES ovarian
  TGI: 47.3 µM
OVCAR-3 ovarian
  TGI: 32.8 µM
OVCAR-4 ovarian
  TGI: 57.6 µM
OVCAR-5 ovarian
  TGI: 47.9 µM
OVCAR-8 ovarian
  TGI: 55.8 µM
PC-3 prostate
  TGI: 27.3 µM
RPMI-8226 leukemia
  TGI: 52.5 µM
RXF 393 renal
  TGI: 33.6 µM
SF-268 CNS
  TGI: 28.4 µM
SF-295 CNS
  TGI: 22.1 µM
SF-539 CNS
  TGI: 25 µM
SK-MEL-2 melanoma
  TGI: 35.2 µM
SK-MEL-28 melanoma
  TGI: 26.1 µM
SK-MEL-5 melanoma
  TGI: 19.2 µM
SK-OV-3 ovarian
  TGI: > 100 µM
SN12C renal
  TGI: 23.5 µM
SNB-19 CNS
  TGI: 52.6 µM
SNB-75 CNS
  TGI: 36.1 µM
SR leukemia
  TGI: 35.8 µM
SW-620 colon
  TGI: 20.4 µM
T-47D breast
  TGI: 35.4 µM
TK-10 renal
  TGI: 47.1 µM
UACC-257 melanoma
  TGI: 31.8 µM
UACC-62 melanoma
  TGI: 16.3 µM
UO-31 renal
  TGI: 29.4 µM

## Cc1c(-c2ccccc2)c(C#N)c2nnn(-c3ccc([N+](=O)[O-])cc3)c(=O)n12
786-0 renal
  TGI: 18.4 µM
A498 renal
  TGI: 49 µM
ACHN renal
  TGI: > 100 µM
BT-549 breast
  TGI: 69.9 µM
CAKI-1 renal
  TGI: > 100 µM
CCRF-CEM leukemia
  TGI: 58.2 µM
COLO 205 colon
  TGI: 40.6 µM
DU-145 prostate
  TGI: 23.2 µM
EKVX NSCLC
  TGI: 23.8 µM
HCC-2998 colon
  TGI: > 100 µM
HCT-116 colon
  TGI: > 100 µM
HCT-15 colon
  TGI: > 100 µM
HL-60(TB) leukemia
  TGI: 13.9 µM
HOP-62 NSCLC
  TGI: 45 µM
HOP-92 NSCLC
  TGI: 45.4 µM
HS 578T breast
  TGI: > 100 µM
HT29 colon
  TGI: 75.3 µM
IGROV1 ovarian
  TGI: 25.3 µM
K-562 leukemia
  TGI: > 100 µM
KM12 colon
  TGI: > 100 µM
LOX IMVI melanoma
  TGI: 42.8 µM
MALME-3M melanoma
  TGI: > 100 µM
MCF7 breast
  TGI: 68.7 µM
MDA-MB-231 breast
  TGI: 27.2 µM
MDA-MB-435
  TGI: > 100 µM
MDA-N
  TGI: > 100 µM
NCI-H226 lung
  TGI: 34 µM
NCI-H23 lung
  TGI: 86.5 µM
NCI-H460 lung
  TGI: > 100 µM
NCI-H522 lung
  TGI: 33 µM
NCI/ADR-RES ovarian
  TGI: 64.7 µM
OVCAR-3 ovarian
  TGI: 39.8 µM
OVCAR-4 ovarian
  TGI: 38.2 µM
OVCAR-5 ovarian
  TGI: 95.4 µM
OVCAR-8 ovarian
  TGI: 23.6 µM
PC-3 prostate
  TGI: 9.54 µM
RPMI-8226 leukemia
  TGI: > 100 µM
RXF 393 renal
  TGI: 48.2 µM
SF-268 CNS
  TGI: 45.3 µM
SF-295 CNS
  TGI: 74.9 µM
SF-539 CNS
  TGI: 27 µM
SK-MEL-2 melanoma
  TGI: 28.6 µM
SK-MEL-28 melanoma
  TGI: > 100 µM
SK-MEL-5 melanoma
  TGI: > 100 µM
SK-OV-3 ovarian
  TGI: > 100 µM
SN12C renal
  TGI: 69.2 µM
SNB-75 CNS
  TGI: 44.1 µM
SR leukemia
  TGI: > 100 µM
SW-620 colon
  TGI: > 100 µM
T-47D breast
  TGI: > 100 µM
TK-10 renal
  TGI: 90 µM
U251 CNS
  TGI: 21.5 µM
UACC-257 melanoma
  TGI: > 100 µM
UACC-62 melanoma
  TGI: > 100 µM
